Source: publication PMC6192261 (Biochemical and biophysical research communications, 2018)

Target: NgDapB (4-hydroxy-tetrahydrodipicolinate reductase from Neisseria gonorrhoeae) (Neisseria gonorrhoeae, UniProt Q5F5Y7)
Assay: isothermal titration calorimetry
Type: binding

Sequence of NgDapB (4-hydroxy-tetrahydrodipicolinate reductase from Neisseria gonorrhoeae) (Q5F5Y7 whole entry): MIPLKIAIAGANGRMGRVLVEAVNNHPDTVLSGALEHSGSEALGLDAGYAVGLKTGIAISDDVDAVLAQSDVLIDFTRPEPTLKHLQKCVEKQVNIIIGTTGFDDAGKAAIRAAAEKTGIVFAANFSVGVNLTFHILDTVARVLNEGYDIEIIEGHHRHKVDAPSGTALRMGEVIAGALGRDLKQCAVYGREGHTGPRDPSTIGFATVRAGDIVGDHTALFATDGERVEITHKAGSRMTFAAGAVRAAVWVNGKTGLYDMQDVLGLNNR

| SMILES | Kd |
| --- | --- |
| O=C(O)c1cccc(C(=O)O)n1 [2,6-PDC, 2,6-pyridine dicarboxylic acid] | 21.2 ± 0.7 µM |
| NC(=O)C1=CN([C@@H]2O[C@H](COP(=O)(O)OP(=O)(O)OC[C@H]3O[C@@H](n4cnc5c(N)ncnc54)[C@H](OP(=O)(O)O)[C@@H]3O)[C@@H](O)[C@H]2O)C=CC1 [NADPH] | 4.8 ± 0.6 µM |
| NC(=O)C1=CN([C@@H]2O[C@H](COP(=O)(O)OP(=O)(O)OC[C@H]3O[C@@H](n4cnc5c(N)ncnc54)[C@H](O)[C@@H]3O)[C@@H](O)[C@H]2O)C=CC1 [NADH] | 2.5 ± 0.5 µM |
